| Compound | melting point |
| --- | --- |
| O=[N+]([O-])c1cccc2ncccc12 | 74 °C |
| Nc1nnc(-c2ccccc2)c(Nc2ccc(Br)cc2)n1 | 203 °C |
| c1ccc2c(c1)CCc1ccccc1C2 | 72 to 76 °C |
| N#CCc1ccccc1CC#N | 59 °C |
| CC(=O)CC(O)C(Cl)(Cl)Cl (centres undefined) | 75 to 76 °C |
| Clc1cc(-c2ccccn2)nc(-c2ccccn2)c1 | 150 °C |
| BrCCC(Br)CBr (centres undefined) | -18 °C |
| Cc1ccccc1N1CSc2nnc(-c3cccc([N+](=O)[O-])c3)n2C1 | 239 to 240 °C |
| CCOC(=O)CC(SP(=S)(OC)OC)C(=O)OCC (centres undefined) | 2.8 °C |
| OCC(Br)=C(Br)CO | 111 to 116 °C |
| COc1cccc(Br)c1O | 64 °C |
| N#CCc1ccc(OCc2ccc(Cl)c(Cl)c2)cc1 | 76 to 77 °C |
| N#Cc1ccc(NN)c(Cl)c1 | 127 to 128 °C |
| OCc1ccc(-n2cncn2)cc1 | 124 to 125 °C |
| CC(C)(C)C(O)C(Cc1ccc(Cl)cc1Cl)n1cncn1 (centres undefined) | 148 °C |
| FC(F)(F)c1cccc(C(F)(F)F)n1 | 57 °C |
| c1ccc(C2=NOC(c3ccccc3)C2)cc1 (centres undefined) | 75 °C |
| N#CCc1c(Cl)cccc1Cl | 76 °C |
| CCCCOC(=O)c1ccccc1C(=O)OCc1ccccc1 | 230 °C |
| O=C(O)CF | 35.2 °C |
| N#Cc1ccc(Cn2cncn2)cc1 | 69 to 72 °C |
| NC(=S)NCCc1ccccc1 | 150 to 152 °C |
| O=S(=O)(Cl)c1ccc(Br)cc1Cl | 79 °C |
| O=C(c1ccccc1)C1C(=O)c2ccccc2C1=O | 108 to 112 °C |
| Cc1ccc[nH]1 | -35.6 °C |
| N#Cc1ccccc1N1CCCCC1 | 45 to 48 °C |
| Oc1ccc(Br)c(Cl)c1 | 66 °C |

| Compound | melting point |
| --- | --- |
| N#C/C(=C/c1ccccc1)c1ccc(Cl)cc1 | 116 °C |
| CCC(CO)NCCNC(CC)CO (centres undefined) | 89 °C |
| O=C(Nc1ccccc1Br)C(C(F)(F)F)C(F)(F)F | 183 to 185 °C |
| O=C(O)CCSC=Cc1ccccc1 | 117 to 120 °C |
| NC(=O)C1CO1 (centres undefined) | 33 °C |
| ON=C(Cl)c1ccc(Cl)cc1Cl | 93 to 95 °C |
| COc1ccc2c3c1OC1C(O)C=CC4C(C2)[N+](C)([O-])CCC341 (centres undefined) | 232 °C |
| CCN(O)CC | 10 °C |
| C1=CC2=CC=Cc3c(c(c4cccc5cccc3c54)=C1)C2 | 171 °C |
| C[Si](C)(Cl)O[Si](C)(C)Cl | -37.5 °C |
| NS(=O)(=O)c1ccc(F)c(Cl)c1 | 109 °C |
| FC(F)(F)CCl | -106 °C |
| CCOP(=O)(O)C(N)=O | 174 °C |
| CC12CCC(C(Cl)C1=O)C2(C)C (centres undefined) | 106 °C |
| O=[N+]([O-])c1cnc(Br)s1 | 88 °C |
| O=C1NN(c2ccccc2)C(=O)C1(Br)Br | 119 °C |
| COc1ccccc1/C=C(\C#N)c1nc2ccccc2s1 | 158 °C |
| ClC#CCl | -66 °C |
| Cc1ccc(-c2cc(NN=c3c(C(F)(F)F)nc4ccccc4[nH]c3=O)[nH]n2)cc1 | 135 °C |
| CCCCCCCCCCCCc1ccc(N)cc1 | 40.5 °C |
| O=[N+]([O-])c1ccc2ccccc2c1O | 123 to 125 °C |
| O=[N+]([O-])c1cccnc1Oc1ccc(Cl)cc1 | 89 to 90 °C |
| O=C(CCCNC(=O)CCCCC(=O)NCCCC(=O)NO)NO | 163 °C |
| CC1=CCCC1 | -126 °C |
| O=C(OC1CCCCC1)c1ccccc1C(=O)OC1CCCCC1 | 66 °C |
| O=C(O)c1[nH]c2ccc([N+](=O)[O-])cc2c1-c1ccccc1 | 290 °C |
| c1ccc2c(c1)cc1ccc3c4ccccc4cc4ccc2c1c43 | 317 °C |

Continued, values first:

| melting point | Compound |
| --- | --- |
| -4 °C | CCCCCCCCCCOC(=O)c1ccccc1C(=O)OCCCCCC |
| 146 °C | CCOC(=O)C(Cl)(Cc1cc(CC(Cl)(C(=O)OCC)C(=O)OCC)c([N+](=O)[O-])cc1[N+](=O)[O-])C(=O)OCC |
| 7.08 °C | CCCOCC(C)OCC(C)O (centres undefined) |
| 26 °C | CCC(C)c1cc([N+](=O)[O-])cc([N+](=O)[O-])c1OC(C)=O (centres undefined) |
| 214 °C | CC(=O)N=c1sc(S(N)(=O)=O)nn1C |
| 177 °C | CC(=O)OCC1OC(Oc2ccc([N+](=O)[O-])cc2)C(OC(C)=O)C(OC(C)=O)C1OC(C)=O (centres undefined) |
| 167 °C | CCOC(=O)C(=C(C)OC(=O)c1ccccc1)c1cc(C(C(=O)OCC)=C(C)OC(=O)c2ccccc2)c([N+](=O)[O-])cc1[N+](=O)[O-] |
| 156 °C | CCOC(=O)C(/C=C1\C(=O)C2(C)CCC1C2(C)C)(/C=C1\C(=O)C2(C)CCC1C2(C)C)CC(C)C (centres undefined) |
| 211 °C | COc1ccc(-c2ccccc2)cc1NC(=O)C(C(F)(F)F)C(F)(F)F |
| 176 °C | Cc1onc(-c2c(F)cccc2Cl)c1C(N)=S |
| 71 °C | CCCCCCOc1ccccc1C(N)=O |
| 196 °C | COc1ccc(NN=c2c(C)nc3ccccc3[nH]c2=O)cc1 |
| 117 to 118 °C | Cc1nc(-c2ccccc2)sc1C(=O)CBr |
| 225 °C | COC(=O)c1ccc(NC(C)=O)c(NC(C)=O)c1 |
| 140 °C | O=C(NCCBr)c1cc([N+](=O)[O-])cc([N+](=O)[O-])c1 |
| 75 °C | CCOC(=O)c1c(-c2ccc(OC)cc2)csc1N |
| 37 to 40 °C | CN(C)CCOc1ccccc1N |
| 234 to 235 °C | Cc1cc(C)c2c(N)c(C(N)=O)sc2n1 |
| 172 °C | CC(CCC(=O)O)C1CCC2=C3CCC4CC(O)CCC4(C)C3CC(O)C21C (centres undefined) |
| 147 °C | CCC(CCC(C)C1CCC2C3CC=C4CC(O)CCC4(C)C3CCC12C)C(C)C (centres undefined) |
| 45 to 50 °C | COC(=O)c1ccc(CO)cc1 |
| 26.5 °C | CC1=CC(C)(C)Nc2ccccc21 |
| 135 °C | O=C(N=NC(=O)N1CCCCC1)N1CCCCC1 |
| 200 to 201 °C | CC(/C=C(\C)c1ccc(-c2ccccc2)cc1)=NNc1ccc([N+](=O)[O-])cc1[N+](=O)[O-] |

| melting point | Compound |
| --- | --- |
| 139 °C | COC(=O)C1CCC(C)(C(C)(C)O)OC1(C)C (centres undefined) |
| 255 to 256 °C | Cc1nc2ccccc2c2c1C(=O)NC2=O |
| 130 °C | CC(=O)Oc1c(-c2ccccn2)[nH]c2ccccc12 |
| 133 to 135 °C | CC(C)(C)OC(=O)N1CCC[C@@H]1C(=O)O |
| 206 °C | CCOc1n[nH]c(=O)c(Br)c1Br |
| 224 °C | Cn1[nH]c(N)c2c(=O)c(C(=O)O)cnc1-2 |
| 115 to 117 °C | Cc1noc(-c2ccc(C(=O)Cl)cc2)n1 |
| 70 °C | CCCCOc1ccc(-c2nnc3sc(-c4ccc(Cl)c([N+](=O)[O-])c4)nn23)cc1 |
| 108 °C | CCCCCCCC(N)=O |
| 65 °C | CC(C)OC(=O)c1cc(C(=O)OC(C)C)cc([N+](=O)[O-])c1 |
| 177 °C | O=C(O)c1cccc(Cl)c1F |
| 74 °C | CCOC(=O)c1cccc(O)c1 |
| 124 °C | CCC(C(=O)O)c1ccc(-c2ccccc2)cc1 (centres undefined) |
| 112 °C | COc1ccc(C(=O)C(O)c2ccc(OC)cc2)cc1 (centres undefined) |
| 214 °C | Cc1cc(=O)n2nc(C(F)(F)F)nc2[nH]1 |
| 193 to 194 °C | CC(C)(C)OC(=O)NCc1nnc(S)n1C1CC1 |
| 88 °C | CC(C)(C)c1cc(O)cc(C(C)(C)C)c1 |
| 234 to 236 °C | O=C1CCC(c2ccc(N=Cc3ccccc3[N+](=O)[O-])cc2)=NN1 |
| 168 to 170 °C | Cc1nc(-c2ccccc2)sc1C(=O)NN |
| 115 °C | CC(C)Oc1ccc2c(=O)c(-c3ccccc3)coc2c1 |
| 176 °C | Cc1ccc(C(=O)C(C)CN2CCCCC2)cc1 (centres undefined) |
| 138 °C | COc1cc2c(cc1C)C(C(=O)O)C2 (centres undefined) |
| 166 to 167 °C | O=C(C=Cc1cccc([N+](=O)[O-])c1)c1ccc(F)cc1 |
| 99 to 101 °C | CCOC(=O)C(C/C=C1\OC(=O)C(OC)=C1OC)S(=O)(=O)c1ccccc1 (centres undefined) |

| melting point | Compound |
| --- | --- |
| 190 to 195 °C | O=[N+]([O-])c1ccc2c(c1)OCCOCCOc1ccccc1OCCOCCO2 |
| 254 °C | COc1ccc(-c2cc(=O)c3c(O)cc(O)cc3o2)cc1O |
| 260 to 262 °C | O=C(CCc1ccc(O)cc1)c1c(O)cc(O)cc1O |
| 102 to 107 °C | CC(=O)NC1C(OCc2ccccc2)OC(COC(c2ccccc2)(c2ccccc2)c2ccccc2)C(O)C1O (centres undefined) |
| 58 to 59 °C | Cc1nn(-c2ccccc2)c(C)c1C(=O)Cl |
| 152 °C | COc1cc(O)c2c(c1)OC(c1ccc(O)cc1)CC2=O (centres undefined) |
| 5 °C | CC(C)OC(=O)COc1ccc(Cl)cc1Cl |
| 95 °C | CN(C)CCn1cnc2c1c(=O)n(C)c(=O)n2C |
| 149 to 152 °C | CC(=O)OC1CCC2(C)C(=CCC3C2CCC2(C)C(C(C)=O)CCC32)C1 (centres undefined) |
| 109 °C | COc1ccc(C(O)(c2cc(OC)c(OC)c(OC)c2)c2ccc(OC)cc2OC)c(OC)c1 |
| 181 °C | CCOc1ccc(NC(=O)C(C(F)(F)F)C(F)(F)F)cc1 |
| -34 °C | CCOC(=O)c1ccccc1 |
| 180 °C | CC(=O)c1c(O)c(C(C)(C)C)cc(C(C)(C)C)c1O |
| 111 to 114 °C | O=S(=O)(c1ccc(Cl)cc1)N(C1CCNCC1)C1CC1 |
| 99 °C | NNc1c(F)cc(F)cc1F |
| 99 °C | COc1cc(F)c(F)cc1C#N |
| 98.5 °C | CC(C)(Oc1ccccc1)C(=O)O |
| 142 to 144 °C | CCCCOc1cc(C(=O)O)ccc1OC |
| 182 °C | COc1cccc(C=C(C(=O)O)C(=Cc2cccc(OC)c2)C(=O)O)c1 |
| 59.5 °C | C#CCOC(=O)C(C)Oc1ccc(Oc2ncc(Cl)cc2F)cc1 (centres undefined) |
| 66 to 70 °C | C1CCC2OCCOCCOC3CCCCC3OCCOCCOC2C1 (centres undefined) |
| 167 °C | COc1cc(NC(=S)Nc2ccc(Br)cc2)c(C(c2ccc(C)o2)c2ccc(C)o2)cc1OC |

From a melting point compilation (Tetko et al.)
